Results from ChEMBL document CHEMBL2203080, “Synthesis and biological evaluation of colchicine C-ring analogues tethered with aliphatic linkers suitable for prodrug derivatisation” (Bioorg Med Chem Lett, 2012).

Assays:
[1] = test system: DLD-1; experiment: Cytotoxicity against human DLD1 cells assessed as growth inhibition; type: functional, cell-based
[2] = Cytotoxicity against multidrug-resistant human A2780AD cells overexpressing p-gp assessed as growth inhibition; type: functional, cell-based; conditions: A2780 ADR
[3] = test system: HeLa; experiment: Cytotoxicity against human HeLa cells harboring class 3 beta tubulin mutant assessed as growth inhibition; type: functional, cell-based
[4] = test system: A2780; experiment: Cytotoxicity against human A2780 cells assessed as growth inhibition; type: functional, cell-based
[5] = test system: A2780; experiment: Resistance factor, ratio of IC50 for multidrug-resistant human A2780AD cells overexpressing p-gp to IC50 for human A2780 cells; type: functional
[6] = test system: HeLa; experiment: Resistance factor, ratio of IC50 for human HeLa cells harboring class 3 beta tubulin mutant to IC50 for human HeLa cells; type: functional
[7] = test system: HeLa; experiment: Cytotoxicity against human HeLa cells assessed as growth inhibition; type: functional, cell-based

Structure (SMILES)	IC50 [1] [nM]	IC50 [2] [nM]	IC50 [3] [nM]	IC50 [4] [nM]	Ratio IC50 [5]	Ratio IC50 [6]	IC50 [7] [nM]
COc1cc2c(c(OC)c1OC)-c1ccc(NCCN(C)C(=O)OC(C)(C)C)c(=O)cc1[C@@H](NC(C)=O)CC2	> 10000	–	–	–	–	–	–
COc1cc2c(c(OC)c1OC)-c1ccc(NCCCCCCN)c(=O)cc1[C@@H](NC(C)=O)CC2	> 10000	–	–	–	–	–	–
COc1cc2c(c(OC)c1OC)-c1ccc(NCCCCCCN3CCCC(O)C3)c(=O)cc1[C@@H](NC(C)=O)CC2 (mixture of isomers)	> 10000	–	–	–	–	–	–
CC(=O)O[C@H]1C(=O)[C@@]2(C)[C@H]([C@H](OC(=O)c3ccccc3)[C@]3(O)C[C@H](OC(=O)[C@H](O)[C@@H](NC(=O)c4ccccc4)c4ccccc4)C(C)=C1C3(C)C)[C@]1(OC(C)=O)CO[C@@H]1C[C@@H]2O [PACLITAXEL]	–	> 1000	11.2	1100	–	–	–
CNCCNc1ccc2c(cc1=O)[C@@H](NC(C)=O)CCc1cc(OC)c(OC)c(OC)c1-2	130	784	554	502	1.6	0.95	586
COc1cc2c(c(OC)c1OC)-c1ccc(OC)c(=O)cc1[C@@H](NC(C)=O)CC2 [COLCHICINE]	45.5	16.8	9.7	6.7	2.5	1.2	8.2
COc1cc2c(c(OC)c1OC)-c1ccc(NCCN3CCCC(O)C3)c(=O)cc1[C@@H](NC(C)=O)CC2 (mixture of isomers)	8100	–	–	–	–	–	–
COc1cc2c(c(OC)c1OC)-c1ccc(NCCN3CCC[C@H]3CO)c(=O)cc1[C@@H](NC(C)=O)CC2	> 10000	–	–	–	–	–	–
COc1cc2c(c(OC)c1OC)-c1ccc(NCCO)c(=O)cc1[C@@H](NC(C)=O)CC2	69.2	241	164	71.1	3.3	0.85	192
COc1cc2c(c(OC)c1OC)-c1ccc(NCCN3CCC[C@@H]3CO)c(=O)cc1[C@@H](NC(C)=O)CC2	> 10000	–	–	–	–	–	–
COc1cc2c(c(OC)c1OC)-c1ccc(NCCN)c(=O)cc1[C@@H](NC(C)=O)CC2	900	–	–	–	–	–	–
